Test results reported in patent publication US3936463A, “Benzomorphanes” (priority 1972, dated 1976).

Columns and labels:
in vivo = conditions: rat, sc
Procedure: (§1) The numbering of the compounds is the same as the numbering of the preparative examples. […] The ED50 and LD50 were calculated relative to the base.

Morphine-dependent rats [1] = experiment: Morphine-antagonistic action (provocation of withdrawal symptoms) in morphine-dependent rats; format: in vivo, rat; conditions: grade, scale not defined
Procedure: as §1

Morphine-dependent rats [2] = experiment: Morphine replacement action (elimination of withdrawal symptoms) in morphine-dependent rats; format: in vivo, rat; conditions: grade, scale not defined
Procedure: as §1

rat tails = experiment: animal or person; conditions: for ED50: Rattus norvegicus, sc, read-out: Analgesic action in heat radiation test on rat tails, ED 50; for Therapeutic index LD 50 / ED 50 / Analgesic action in heat radiation test on rat tails, ED 50: rats, s.c.; for Therapeutic index LD 50 / ED 50: calculated from LD 50 and ED 50; for Analgesic action in heat radiation test on rat tails, ED 50: calculated relative to the base
Procedure: as §1

[3] = test system: Morphine-dependent monkeys; experiment: Morphine-antagonistic action (provocation of withdrawal symptoms) in morphine-dependent monkeys; format: in vivo, monkey; conditions: grade, scale not defined
Procedure: as §1

[4] = test system: Morphine-dependent monkeys; experiment: Morphine-replacement action (elimination of withdrawal symptoms) in morphine-dependent monkeys; format: in vivo, monkey; conditions: grade, scale not defined
Procedure: as §1

## CCC12CCN(CC3CC3)C(Cc3ccc(OCCCCOC(C)=O)cc31)C2C (stereo not drawn) [Example 9, 2-Cyclopropylmethyl-5-ethyl-9-methyl-2'-[4-acetoxybutoxy-(1)]-6,7-benzomorphan]
In vivo
  LD50: > 500 mg/kg
Morphine-dependent rats [1]
  Morphine-antagonistic action (provocation of withdrawal symptoms): 1
Morphine-dependent rats [2]
  Morphine replacement action (elimination of withdrawal symptoms): 0-1
Rat tails
  ED50: 0.61 mg/kg
  Therapeutic index LD 50 / ED 50: > 820

## CCC12CCN(CC3CC3)C(Cc3ccc(OC(C)(C)COC(C)=O)cc31)C2C (stereo not drawn) [Example 11, 2-Cyclopropylmethyl-5-ethyl-9-methyl-[1-acetoxy-2-methyl-propoxy-(2)]-6,7-benzomorphan]
Rat tails
  ED50: 0.47 mg/kg
[3]
  Morphine-antagonistic action (provocation of withdrawal symptoms): 1

## CCC(=O)OCCCOc1ccc2c(c1)C1(CC)CCN(CC3CC3)C(C2)C1C (stereo not drawn) [Example 2a, 2-Cyclopropylmethyl-5-ethyl-9-methyl-2'-[3-propionyloxy-propoxy-(1)]-6,7-benzomorphan]
In vivo
  LD50: 296 mg/kg
[4]
  Morphine-replacement action (elimination of withdrawal symptoms): 0
Morphine-dependent rats [1]
  Morphine-antagonistic action (provocation of withdrawal symptoms): 2
Morphine-dependent rats [2]
  Morphine replacement action (elimination of withdrawal symptoms): 0
Rat tails
  ED50: 0.49 mg/kg
  Therapeutic index LD 50 / ED 50: 604
[3]
  Morphine-antagonistic action (provocation of withdrawal symptoms): 2

## COc1ccc2c3c1O[C@H]1[C@@H](O)C=C[C@H]4[C@@H](C2)N(C)CC[C@@]341 [Codeine, reference compound]
In vivo
  LD50: 202 mg/kg
[4]
  Morphine-replacement action (elimination of withdrawal symptoms): 3
Morphine-dependent rats [1]
  Morphine-antagonistic action (provocation of withdrawal symptoms): 0
Morphine-dependent rats [2]
  Morphine replacement action (elimination of withdrawal symptoms): 3
Rat tails
  ED50: 4.5 mg/kg
  Therapeutic index LD 50 / ED 50: 51

## CCC12CCN(CC3CC3)C(Cc3ccc(OCC(C)CCOC(C)=O)cc31)C2C (stereo not drawn) [Example 17, 2-Cyclopropylmethyl-5-ethyl-9-methyl-2'-[4-acetoxy-2-methylbutoxy-(1)]-6,7-benzomorphan]
Rat tails
  Analgesic action in heat radiation test on rat tails, ED 50: 0.96 mg/kg
[3]
  Morphine-antagonistic action (provocation of withdrawal symptoms): 2

## CCC12CCN(CC3CC3)C(Cc3ccc(OCC(C)COC(C)=O)cc31)C2C (stereo not drawn) [Example 6a, 2-Cyclopropylmethyl-5-ethyl-9-methyl-2'-[3-acetoxyisobutoxy-(1)]-6,7-benzomorphan]
Rat tails
  ED50: 0.42 mg/kg
[3]
  Morphine-antagonistic action (provocation of withdrawal symptoms): 3

## CC(=O)OCCCOc1ccc2c(c1)C1(C)CCN(CC3CC3)C(C2)C1C (stereo not drawn) [Example 7, 2-Cyclopropylmethyl-5,9-dimethyl-2'-[3-acetoxypropoxy-(1)]-6,7-benzomorphan]
In vivo
  LD50: ~400 mg/kg
Morphine-dependent rats [1]
  Morphine-antagonistic action (provocation of withdrawal symptoms): 1
Morphine-dependent rats [2]
  Morphine replacement action (elimination of withdrawal symptoms): 0
Rat tails
  ED50: 1.6 mg/kg
  Therapeutic index LD 50 / ED 50: ~ 258

## CCOC(=O)C1(c2ccccc2)CCN(C)CC1 [Pethidine, reference compound]
In vivo
  LD50: 113 mg/kg
Rat tails
  ED50: 5.7 mg/kg
  Therapeutic index LD 50 / ED 50: 20

## CCC12CCN(CC3CC3)C(Cc3ccc(OCCCCOC(=O)C(C)C)cc31)C2C (stereo not drawn) [Example 10b, 2-Cyclopropylmethyl-5-ethyl-9-methyl-2'-[4-isobutyryloxybutoxy-(1)]-6,7-benzomorphan]
In vivo
  LD50: > 500 mg/kg
Morphine-dependent rats [1]
  Morphine-antagonistic action (provocation of withdrawal symptoms): 1
Morphine-dependent rats [2]
  Morphine replacement action (elimination of withdrawal symptoms): 0
Rat tails
  ED50: 0.42 mg/kg
  Therapeutic index LD 50 / ED 50: > 1,190

## CC(C)=CCN1CCC2(C)c3cc(O)ccc3CC1C2C (stereo not drawn) [Pentazocine, reference compound]
In vivo
  LD50: 140 mg/kg
Morphine-dependent rats [1]
  Morphine-antagonistic action (provocation of withdrawal symptoms): 2
Morphine-dependent rats [2]
  Morphine replacement action (elimination of withdrawal symptoms): 1
Rat tails
  ED50: 4.8 mg/kg
  Therapeutic index LD 50 / ED 50: 29
[3]
  Morphine-antagonistic action (provocation of withdrawal symptoms): 2

## CCC12CCN(CC3CC3)C(Cc3ccc(OCCCOC(=O)C(C)(C)C)cc31)C2C (stereo not drawn) [Example 4a, 2-Cyclopropylmethyl-5-ethyl-9-methyl-2'-[3-pivaloyloxy-propoxy-(1)]-6,7-benzomorphan]
In vivo
  LD50: > 500 mg/kg
Morphine-dependent rats [1]
  Morphine-antagonistic action (provocation of withdrawal symptoms): 1
Morphine-dependent rats [2]
  Morphine replacement action (elimination of withdrawal symptoms): 0
Rat tails
  ED50: 0.97 mg/kg
  Therapeutic index LD 50 / ED 50: > 515

## C/C=C/C(=O)OCCCOc1ccc2c(c1)C1(CC)CCN(CC3CC3)C(C2)C1C (stereo not drawn) [Example 4d, 2-Cyclopropylmethyl-5-ethyl-9-methyl-2'-[3-crotonoyloxy-propoxy-(1)]-6,7-benzomorphan]
Morphine-dependent rats [1]
  Morphine-antagonistic action (provocation of withdrawal symptoms): 2
Morphine-dependent rats [2]
  Morphine replacement action (elimination of withdrawal symptoms): 0
Rat tails
  ED50: 0.35 mg/kg
[3]
  Morphine-antagonistic action (provocation of withdrawal symptoms): 3

## CCC(=O)OCCC(C)COc1ccc2c(c1)C1(CC)CCN(CC3CC3)C(C2)C1C (stereo not drawn) [Example 18]
Rat tails
  Analgesic action in heat radiation test on rat tails, ED 50: 1.36 mg/kg
[3]
  Morphine-antagonistic action (provocation of withdrawal symptoms): 2

## CCC12CCN(CC3CC3)C(Cc3ccc(OCCCOC(=O)c4ccccc4)cc31)C2C (stereo not drawn) [Example 4e, 2-Cyclopropylmethyl-5-ethyl-9-methyl-2'-[3-benzoyloxy-propoxy-(1)]-6,7-benzomorphan]
Rat tails
  ED50: 0.42 mg/kg
[3]
  Morphine-antagonistic action (provocation of withdrawal symptoms): 2

## CCC12CCN(CC3CC3)C(Cc3ccc(OCCCOC(=O)C(C)C)cc31)C2C (stereo not drawn) [Example 2b, 2-Cyclopropylmethyl-5-ethyl-9-methyl-2'-[3-isobutyryloxy-propoxy-(1)]-6,7-benzomorphan]
In vivo
  LD50: ~300 mg/kg
Morphine-dependent rats [1]
  Morphine-antagonistic action (provocation of withdrawal symptoms): 1
Morphine-dependent rats [2]
  Morphine replacement action (elimination of withdrawal symptoms): 0
Rat tails
  ED50: 1 mg/kg
  Therapeutic index LD 50 / ED 50: ~ 300

## C/C=C/C(=O)OCC(C)COc1ccc2c(c1)C1(CC)CCN(CC3CC3)C(C2)C1C (stereo not drawn) [Example 6b, 2-Cyclopropylmethyl-5-ethyl-9-methyl-2'-[3-crotonoyloxyisobutoxy-(1)]-6,7-benzomorphan]
Rat tails
  ED50: 0.31 mg/kg
[3]
  Morphine-antagonistic action (provocation of withdrawal symptoms): 3

## CCC(=O)OCCCCOc1ccc2c(c1)C1(CC)CCN(CC3CC3)C(C2)C1C (stereo not drawn) [Example 10a]
In vivo
  LD50: > 500 mg/kg
Morphine-dependent rats [1]
  Morphine-antagonistic action (provocation of withdrawal symptoms): 2
Morphine-dependent rats [2]
  Morphine replacement action (elimination of withdrawal symptoms): 0
Rat tails
  ED50: 0.62 mg/kg
  Therapeutic index LD 50 / ED 50: > 806

## CN1CC[C@]23c4c5ccc(O)c4O[C@H]2[C@@H](O)C=C[C@H]3[C@H]1C5 [Morphine, reference compound]
Rat tails
  Analgesic action in heat radiation test on rat tails, ED 50: 1.78 mg/kg

## CCC12CCN(CC3CC3)C(Cc3ccc(OCCCOC(=O)c4cccnc4)cc31)C2C (stereo not drawn) [Example 20]
Rat tails
  ED50: 1.2 mg/kg
[3]
  Morphine-antagonistic action (provocation of withdrawal symptoms): 1

## CCC12CCN(CC3CC3)C(Cc3ccc(OCCCOC(C)=O)cc31)C2C (stereo not drawn) [Example 1, 2-Cyclopropylmethyl-5-ethyl-9-methyl-2'-[3-acetoxypropoxy-(1)]-6,7-benzomorphan]
In vivo
  LD50: 352 mg/kg
[4]
  Morphine-replacement action (elimination of withdrawal symptoms): 0
Morphine-dependent rats [1]
  Morphine-antagonistic action (provocation of withdrawal symptoms): 2
Morphine-dependent rats [2]
  Morphine replacement action (elimination of withdrawal symptoms): 0
Rat tails
  ED50: 0.42 mg/kg
  Therapeutic index LD 50 / ED 50: 838
[3]
  Morphine-antagonistic action (provocation of withdrawal symptoms): 1-2

## CCOC(=O)N(C)C(=O)OCCCOc1ccc2c(c1)C1(CC)CCN(CC3CC3)C(C2)C1C (stereo not drawn) [Example 23, 2-cyclopropylmethyl-5-ethyl-9-methyl-2'-[3-N-ethoxycarbonyl-N-methyl-carbamoyloxypropoxy-(1)]-6,7-benzomorphan]
Rat tails
  ED50: 1.2 mg/kg
[3]
  Morphine-antagonistic action (provocation of withdrawal symptoms): 2

## CCC12CCN(CC3CC3)C(Cc3ccc(OCCCOC(=O)COc4ccccc4)cc31)C2C (stereo not drawn) [Example 21a, 2-Cyclopropylmethyl-5-ethyl-9-methyl-2'-[3-phenoxyacetoxypropoxy-(1)]-6,7-benzomorphan]
Rat tails
  ED50: 1.2 mg/kg
[3]
  Morphine-antagonistic action (provocation of withdrawal symptoms): 2

## CCC(=O)OCCCOc1ccc2c(c1)C1(C)CCN(CC3CC3)C(C2)C1C (stereo not drawn) [Example 8, 2-Cyclopropylmethyl-5-9-dimethyl-2'-[3-propionyloxypropoxy-(1)]-6,7-benzomorphan]
In vivo
  LD50: ~425 mg/kg
Morphine-dependent rats [1]
  Morphine-antagonistic action (provocation of withdrawal symptoms): 1
Morphine-dependent rats [2]
  Morphine replacement action (elimination of withdrawal symptoms): 1
Rat tails
  ED50: 1.6 mg/kg
  Therapeutic index LD 50 / ED 50: ~ 262
